Test results as given in patent US20250241890A1, “1,4-DIUREAS AND 1,4-DITHIOUREAS AND USES THEREOF” (Purdue Research Foundation, priority 2024, published 2025).
Entries after “also recorded” stand apart in the source; their conditions may differ.

What was measured:
Assay type in all cases: biochemical
α-synuclein (α-syn) [1] = molecular target: T1, α-synuclein (α-syn) (Homo sapiens, UniProt P37840); assay: Thioflavin T (ThT) fluorescence assay of α-syn fibril formation; settings: α-syn 2 μM final concentration, compounds at 100 μM, average of three replicates with SEM; read-out: % ThT intensity (100 μM), maximum ThT intensity in percentage
T1 construct: purchased rPeptide (Watkinsville, GA)
Experimental: Chemical and peptide source. Dimethylsulfoxide (DMSO) and thioflavin-T (ThT) were purchased from Alfa Aesar (Ward Hill, MA). Recombinant α-synuclein (α-syn) was procured from rPeptide (WatKinsville, GA). The recombinant p-tau isoform 1N4R was prepared as published previously (Fortin et al. 2021, Sui et al. 2015, Liu et al. 2020). Concerning the preparation of tau 0N4R, a bacterial expression plasmid consisting of the vector pET30a carrying a cDNA encoding the human Tau 0N4R isoform was a kind gift of Dr. Benjamin Wolozin (Boston University). E. coli stock (Rosetta BL21 E. coli (CamR) containing pET30a [0N4R tau wt] (KanR)) was grown in LB medium supplemented with kanamycin (50 μg/mL) and chloramphenicol (50 μg/mL). Protein over-expression was induced by the addition of 1 mM IPTG for ˜18 hours at 37° C., and cells were pelleted by centrifugation at 6,000 g for 15 minutes at 4° C. The cells were resuspended in lysis buffer (10 mM Hepes, pH 7.4, 50 mM NaCl, 1 mM MgCl2, 1 mM PMSF, 1× PIC, and 0.5 mM DTT) and lysed by sonication at 30 seconds “On” and 1 minute “Off” at ˜30-45% power for ˜3-5 minutes. Lysate was centrifuged at 10,000 rpm for 10 minutes at 4° C., and supernatant was transferred with 7.8 ml (total) of 3M NaCl. The lysate was incubated for 10 minutes in 80° C. water bath, then cooled for 10 minutes in an ice bath. The lysate was centrifuged at 10,000 rpm at 4° C. for 10 minutes, and the supernatant was transferred to a new tube. The supernatant was dialyzed overnight against cation exchange buffer (50 mM MES, […], 1 mM DTT, pH 6.0). The dialysate was loaded onto a HiPrep SP HP column, and proteins were eluted with a linear gradient ranging from 50 mM to 1 M NaCl. General Characterizations. ^1H and ^13C {1H} NMR spectra were recorded using a 500 MHz Bruker instrument working at a frequency of 500 MHz for ^1H and at 126 MHz for ^13C. Chemical shifts are reported in ppm using residual solvent resonances as internal reference (δ 2.50 and δ 39.51 for ^1H and ^13C in DMSO-d6, respectively). ^1H NMR data are reported as follows. b=broad, s=singlet, d=doublet, t=triplet, q=quartet, and m=multiplet. Coupling constants are given in hertz. The purity of all compounds and synthetic intermediates was judged to be 95% or better based on ^1H NMR. IR measurements were performed in a Nicolet FTIR as thin films in the Purdue Drug Discovery facility. High-resolution mass spectrometry analyses were conducted at the MSU Mass Spectrometry facility. Thioflavin fluorescence assays. […] The recombinant α-syn obtained from rPeptide has been validated with proper quality control to confirm the monomeric state of the protein. Kinetics of fibril formation have been performed using ThT as published previously.^6, 12, 13, 24 The fluorescence emission experiments were performed with the excitation and emission wavelengths set at 440 and 485 nm, respectively, with a Synergy HT multi-mode microplate reader (BioTek, Winooski, VT). Samples were measured in three replicates. Experiments were repeated three times using different α-syn stock solutions. For each time point, arbitrary units of fluorescence were calculated from the mean values normalized against the maximum value. The percentage of fluorescence intensity at the plateau phase in Table 1 was expressed as mean #SEM. Concerning the dose response curve depicted in FIG. 2, the data were plotted using GraphPad Prism. Photo-induced Cross-linking of Unmodified Proteins (PICUP) Assay. To induce oligomerization by cross-linking, α-syn (from Rpeptide, LLC) was diluted in 10 mM phosphate buffer (pH 7.4) to reach a final concentration of 50 μM. Different compounds were added to the protein solution at a final concentration of 50 μM, resulting in a molar ratio of 1:1. PICUP assays were performed with the following controls: samples without light exposition, without Ru(bpy) or ammonium persulfate, and without compound (i.e., 0.125% DMSO). […]

α-synuclein (α-syn) [2] = molecular target: T1, α-synuclein (α-syn); assay: PICUP assay of α-syn oligomer formation; settings: α-syn 60 μM, compound 50 μM (~molar ratio 1:1)
Experimental: Chemical and peptide source. Dimethylsulfoxide (DMSO) and thioflavin-T (ThT) were purchased from Alfa Aesar (Ward Hill, MA). Recombinant α-synuclein (α-syn) was procured from rPeptide (WatKinsville, GA). The recombinant p-tau isoform 1N4R was prepared as published previously (Fortin et al. 2021, Sui et al. 2015, Liu et al. 2020). Concerning the preparation of tau 0N4R, a bacterial expression plasmid consisting of the vector pET30a carrying a cDNA encoding the human Tau 0N4R isoform was a kind gift of Dr. Benjamin Wolozin (Boston University). E. coli stock (Rosetta BL21 E. coli (CamR) containing pET30a [0N4R tau wt] (KanR)) was grown in LB medium supplemented with kanamycin (50 μg/mL) and chloramphenicol (50 μg/mL). Protein over-expression was induced by the addition of 1 mM IPTG for ˜18 hours at 37° C., and cells were pelleted by centrifugation at 6,000 g for 15 minutes at 4° C. The cells were resuspended in lysis buffer (10 mM Hepes, pH 7.4, 50 mM NaCl, 1 mM MgCl2, 1 mM PMSF, 1× PIC, and 0.5 mM DTT) and lysed by sonication at 30 seconds “On” and 1 minute “Off” at ˜30-45% power for ˜3-5 minutes. Lysate was centrifuged at 10,000 rpm for 10 minutes at 4° C., and supernatant was transferred with 7.8 ml (total) of 3M NaCl. The lysate was incubated for 10 minutes in 80° C. water bath, then cooled for 10 minutes in an ice bath. The lysate was centrifuged at 10,000 rpm at 4° C. for 10 minutes, and the supernatant was transferred to a new tube. The supernatant was dialyzed overnight against cation exchange buffer (50 mM MES, […], 1 mM DTT, pH 6.0). The dialysate was loaded onto a HiPrep SP HP column, and proteins were eluted with a linear gradient ranging from 50 mM to 1 M NaCl. General Characterizations. ^1H and ^13C {1H} NMR spectra were recorded using a 500 MHz Bruker instrument working at a frequency of 500 MHz for ^1H and at 126 MHz for ^13C. Chemical shifts are reported in ppm using residual solvent resonances as internal reference (δ 2.50 and δ 39.51 for ^1H and ^13C in DMSO-d6, respectively). ^1H NMR data are reported as follows. b=broad, s=singlet, d=doublet, t=triplet, q=quartet, and m=multiplet. Coupling constants are given in hertz. The purity of all compounds and synthetic intermediates was judged to be 95% or better based on ^1H NMR. IR measurements were performed in a Nicolet FTIR as thin films in the Purdue Drug Discovery facility. High-resolution mass spectrometry analyses were conducted at the MSU Mass Spectrometry facility. Thioflavin fluorescence assays. Thioflavin fluorescence assays were used to monitor fibril formation of commercial recombinant α-syn at a final concentration of 2 μM and treated with control DMSO and different compounds. The recombinant α-syn obtained from rPeptide has been validated with proper quality control to confirm the monomeric state of the protein. Kinetics of fibril formation have been performed using ThT as published previously.^6, 12, 13, 24 The fluorescence emission experiments were performed with the excitation and emission wavelengths set at 440 and 485 nm, respectively, with a Synergy HT multi-mode microplate reader (BioTek, Winooski, VT). Samples were measured in three replicates. Experiments were repeated three times using different α-syn stock solutions. For each time point, arbitrary units of fluorescence were calculated from the mean values normalized against the maximum value. The percentage of fluorescence intensity at the plateau phase in Table 1 was expressed as mean #SEM. Concerning the dose response curve depicted in FIG. 2, the data were plotted using GraphPad Prism. Photo-induced Cross-linking of Unmodified Proteins (PICUP) Assay. […] Different compounds were added to the protein solution at a final concentration of 50 μM, resulting in a molar ratio of 1:1. PICUP assays were performed with the following controls: samples without light exposition, without Ru(bpy) or ammonium persulfate, and without compound (i.e., 0.125% DMSO). […]

tau isoform 0N4R = molecular target: T2, tau isoform 0N4R (Homo sapiens, UniProt P10636); assay: PICUP assay of tau 0N4R oligomer formation; settings: tau 10 μM, compound 50 μM (molar ratio 1:5)
T2 construct: made in house; host or cells: Rosetta BL21 E. coli
Experimental: FIG. 5. […] Compounds 1, 2, and 8 were selected for their α-syn anti-oligomerization activity. Compound 7 was used as di-urea counterpart of compound 8, as compound 1 is the di-urea counterpart of compound 2, a dithiourea derivative. Tau (10 μM) was cross-linked (PICUP assay) with different concentrations of the di-substituted aminoindolyl derivatives at 50 μM (molar ratio 1:5).
Chemical and peptide source. Dimethylsulfoxide (DMSO) and thioflavin-T (ThT) were purchased from Alfa Aesar (Ward Hill, MA). Recombinant α-synuclein (α-syn) was procured from rPeptide (WatKinsville, GA). The recombinant p-tau isoform 1N4R was prepared as published previously (Fortin et al. 2021, Sui et al. 2015, Liu et al. 2020). Concerning the preparation of tau 0N4R, a bacterial expression plasmid consisting of the vector pET30a carrying a cDNA encoding the human Tau 0N4R isoform was a kind gift of Dr. Benjamin Wolozin (Boston University). E. coli stock (Rosetta BL21 E. coli (CamR) containing pET30a [0N4R tau wt] (KanR)) was grown in LB medium supplemented with kanamycin (50 μg/mL) and chloramphenicol (50 μg/mL). […] General Characterizations. ^1H and ^13C {1H} NMR spectra were recorded using a 500 MHz Bruker instrument working at a frequency of 500 MHz for ^1H and at 126 MHz for ^13C. […] Thioflavin fluorescence assays. Thioflavin fluorescence assays were used to monitor fibril formation of commercial recombinant α-syn at a final concentration of 2 μM and treated with control DMSO and different compounds. […] Kinetics of fibril formation have been performed using ThT as published previously.^6, 12, 13, 24 The fluorescence emission experiments were performed with the excitation and emission wavelengths set at 440 and 485 nm, respectively, with a Synergy HT multi-mode microplate reader (BioTek, Winooski, VT). Samples were measured in three replicates. […] For each time point, arbitrary units of fluorescence were calculated from the mean values normalized against the maximum value. The percentage of fluorescence intensity at the plateau phase in Table 1 was expressed as mean #SEM. […]

T2 sequence (P10636 1-383 isoform P10636-6): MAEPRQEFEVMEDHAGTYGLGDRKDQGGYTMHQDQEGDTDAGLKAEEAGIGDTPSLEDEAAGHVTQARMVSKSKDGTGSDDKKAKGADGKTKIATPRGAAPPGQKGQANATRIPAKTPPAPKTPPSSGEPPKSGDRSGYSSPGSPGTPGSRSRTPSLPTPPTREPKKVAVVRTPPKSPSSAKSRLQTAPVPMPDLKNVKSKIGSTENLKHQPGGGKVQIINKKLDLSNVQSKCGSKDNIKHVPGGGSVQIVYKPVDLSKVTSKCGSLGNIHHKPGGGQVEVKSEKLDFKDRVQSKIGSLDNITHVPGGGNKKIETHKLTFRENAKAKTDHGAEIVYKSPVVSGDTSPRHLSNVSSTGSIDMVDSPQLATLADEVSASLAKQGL

remaining activity at 100 µM (α-synuclein (α-syn) [1]) [%] | SMILES | effect on α-syn oligomer formation (high molecular weight bands) by PICUP (α-synuclein (α-syn) [2]) | effect on tau 0N4R oligomer formation by PICUP (tau isoform 0N4R)
46.2 | S=C(Nc1ccc(NC(=S)Nc2ccc3[nH]ccc3c2)cc1)Nc1ccc2[nH]ccc2c1 [Compound 4, 3-(1H-indol-5-yl)-1-(4-{[(1H-indol-5-yl)carbamothioyl]amino}phenyl)thiourea] | mediocre; also recorded: reduced slightly | 
58.7 | O=C(Nc1ccc(NC(=O)Nc2ccc3cc[nH]c3c2)cc1)Nc1ccc2cc[nH]c2c1 [Compound 5, 3-(1H-indol-6-yl)-1-(4-{[(1H-indol-6-yl)carbamoyl]amino}phenyl)urea] | mediocre; also recorded: reduced slightly | 
36.1 | S=C(Nc1ccc(NC(=S)Nc2ccc3cc[nH]c3c2)cc1)Nc1ccc2cc[nH]c2c1 [Compound 6, 3-(1H-indol-6-yl)-1-(4-{[(1H-indol-6-yl)carbamothioyl]amino}phenyl)thiourea] | mediocre; also recorded: reduced slightly | 
52.4 | O=C(Nc1ccc(NC(=O)Nc2cccc3cc[nH]c23)cc1)Nc1cccc2cc[nH]c12 [Compound 7, 3-(1H-indol-7-yl)-1-(4-{[(1H-indol-7-yl)carbamoyl]amino}phenyl)urea] |  | None of these compounds were able to reduce the tau 0N4R oligomer formation
